In brackets after ≈: the same amount, converted by molar mass.
Key:
[1] = tested on: Mycobacterium tuberculosis; assay: Antitubercular activity against Mycobacterium tuberculosis H37Rv ATCC 27294 after 5 days under aerobic condition; format: functional, organism-based; conditions: for IC50 / IC90 / MIC: H37Rv ATCC 27294, 120 h; for Activity: TDE = time-dependent effect
[2] = tested on: Mycobacterium tuberculosis; assay: Antitubercular activity against Mycobacterium tuberculosis H37Rv ATCC 27294 after 10 days under low oxygen condition followed by incubation under aerobic condition for 28 hrs by LORA; format: functional, organism-based
[3] = tested on: Mycobacterium tuberculosis; assay: Bactericidal activity against Mycobacterium tuberculosis H37Rv ATCC 27294 assessed as concentration required for 2 log kill after 21 days under aerobic condition by colony forming assay; format: functional; conditions: for MBC: H37Rv ATCC 27294, 504 h; for Activity: TDE = time-dependent effect
[4] = tested on: Vero; assay: Cytotoxicity against African green monkey Vero cells after 2 days by CellTiter-Glo luminescent cell viability assay; format: ADME, cell-based; conditions: Chlorocebus sabaeus, 48 h
[5] = tested on: Mycobacterium tuberculosis; assay: Antitubercular activity against luxABCDE expressing Mycobacterium tuberculosis H37Rv infected in mouse J774 macrophages assessed as log reduction in bacterial colonies at 20 uM measured after 4 days under aerobic condition by luminescence assay; format: functional
[6] = Solubility of compound in Middlebrook 7H9 broth media at pH 6.4 at 200 uM after 90 mins by UV-VIS spectrophotometric method; format: physicochemical; conditions: buffer, pH 6.4, 1.5 h
[7] = tested on: L6; assay: Cytotoxicity against rat L6 cells after 2 days by CellTiter-Glo luminescent cell viability assay; format: ADME, cell-based; conditions: L6, 48 h
[8] = tested on: Mycobacterium tuberculosis; assay: Antitubercular activity against luxABCDE expressing Mycobacterium tuberculosis H37Rv infected in human THP1 cells measured after 3 days by luminescence assay; format: functional, organism-based; conditions: THP-1, 72 h
[9] = tested on: Mycobacterium tuberculosis; assay: Antitubercular activity against luxABCDE expressing Mycobacterium tuberculosis H37Rv infected in mouse J774 macrophages assessed as log reduction in bacterial colonies at 200 uM measured after 4 days under aerobic condition by luminescence assay; format: functional
[10] = tested on: THP-1; assay: Cytotoxicity against human THP1 cells after 3 days by luminescence assay; format: cell-based; conditions: THP-1, 72 h
[11] = Protein binding in human plasma at 5 uM after 4 hrs by LC-MS/MS analysis
[12] = Half life in human liver S9 microsomes at 1 uM in absence of NADPH by LC-MS/MS analysis
[13] = tested on: HepG2; assay: Cytotoxicity against human HepG2 cells at 100 uM after 3 days by CellTiter-Glo luminescent cell viability assay; format: cell-based; conditions: HepG2, 72 h
[14] = tested on: Mycobacterium tuberculosis; assay: Potency index, ratio of compound MIC to metronidazole MIC for antitubercular activity against Mycobacterium tuberculosis H37Rv ATCC 27294 under low oxygen condition; format: functional
[15] = Half life in human liver S9 microsomes at 1 uM in presence of NADPH by LC-MS/MS analysis
[16] = in vitro; conditions: human, Caco-2
Description: Apparent permeability of the compound across apical side to basolateral side in human Caco2 cells monolayer at 10 uM after 2 hrs by LC-MS/MS analysis

[17] = in vitro; conditions: human, Caco-2; remark: listed apart in the source
Description: Apparent permeability of the compound across basolateral side to apical side in human Caco2 cells monolayer at 10 uM after 2 hrs by LC-MS/MS analysis

[18] = in vitro; conditions: human, Caco-2; remark: listed apart in the source
Description: Efflux ratio of apparent permeability from basolateral to apical over apical to basolateral side in human Caco2 cells monolayer at 10 uM after 2 hrs by LC-MS/MS analysis

SMILES | IC50 [1] | IC90 [1] | MIC [1] | IC50 [2] | IC90 [2] | MIC [2] | MBC [3] | solubility [6] | IC50 [8] | IC90 [8] | further results
O=C(Cn1ccnc1[N+](=O)[O-])Nc1ccc(Oc2ccc(F)cc2)cc1 | 44 µM | 89 µM | 80 µM (≈ 28.5 µg/mL) | 17 µM | 31 µM | 61 µM (≈ 21.7 µg/mL) | 100 µM (≈ 35.6 µg/mL) |  |  |  | IC50 [4]: 56 µM; log(activity) [5]: 2.2
Cc1ccoc1C(=O)NCCCn1cnc([N+](=O)[O-])n1 | 41 µM | 54 µM | 54.5 µM (≈ 15.2 µg/mL) |  |  |  |  | Soluble |  |  | 
O=C(Cn1cnc([N+](=O)[O-])n1)N1CCN(C(c2ccccc2)c2ccc(Cl)cc2)CC1 (centres undefined) | 38 µM | 48 µM | 50 µM (≈ 22 µg/mL) | 51 µM | 57 µM | 65 µM (≈ 28.7 µg/mL) | 100 µM (≈ 44.1 µg/mL) |  | 8 µM | 11 µM | IC50 [4]: 21 µM; IC50 [7]: 32 µM
O=C(NCCCn1cnc([N+](=O)[O-])n1)c1cc2ccccc2s1 | 107 µM | > 200 µM | > 200 µM |  |  |  |  | Insoluble |  |  | 
CC(O)(Cn1cnc([N+](=O)[O-])n1)c1ccc(-c2ccc(C#N)cc2)cc1 (centres undefined) | 55 µM | 125 µM | > 200 µM | 73 µM | 176 µM | > 200 µM | 100 µM (≈ 34.9 µg/mL) |  |  |  | IC50 [4]: 66 µM; IC50 [7]: 86 µM
O=C(Cn1cnc([N+](=O)[O-])n1)Nc1ccc(Oc2ccccc2)cc1 | 65 µM | 100 µM | 105 µM (≈ 35.6 µg/mL) | 8.9 µM | 92 µM | > 200 µM | 200 µM (≈ 67.9 µg/mL) |  |  |  | IC50 [4]: 39 µM; log(activity) [9]: 2.7
O=C(CCn1cnc([N+](=O)[O-])n1)Nc1ccc(Oc2ccccc2)cc1 | 28 to 32 µM | 39 to 45 µM | 48 µM (≈ 17 µg/mL) | 32 µM | 49 µM | 81 µM (≈ 28.6 µg/mL) | 20 µM (≈ 7.07 µg/mL) |  | 5 µM | 17 µM | Activity [1]: Tde; Activity [3]: Tde; IC50 [10]: 33 µM; IC50 [7]: 32 µM
CC(=O)N1CCN(c2ccc(OCC3COC(Cn4ccnc4)(c4ccc(Cl)cc4Cl)O3)cc2)CC1 (centres undefined) [KETOCONAZOLE] |  |  |  |  |  |  |  | Insoluble |  |  | 
O=C(Cn1cnc([N+](=O)[O-])n1)Nc1cccc(-c2ccccc2)c1 | 27 µM | 39 µM | 31 µM (≈ 10 µg/mL) | 30 µM | 46 µM | 73 µM (≈ 23.6 µg/mL) | 20 µM (≈ 6.47 µg/mL) |  | 11 µM | 12 µM | IC50 [10]: > 50 µM; fraction unbound at 4 h, 5 µM [11]: 0.028; half-life at 1 µM [12]: 1.32 h; IC50 [13]: 46 µM
O=C(Cn1cnc([N+](=O)[O-])n1)Nc1nc(-c2ccc(Cl)cc2)cs1 | 34.2 µM | 34.9 µM | 34.9 µM (≈ 12.7 µg/mL) |  |  |  |  | Insoluble |  |  | 
Cc1ncc([N+](=O)[O-])n1CCO [METRONIDAZOLE] | > 200 µM | > 200 µM | > 200 µM | 14 to 36 µM | 33 to 82 µM | 88 to 200 µM (≈ 15.1 to 34.2 µg/mL) |  |  |  |  | 
N#Cc1ccc(-c2ccc(NC(=O)Cn3cnc([N+](=O)[O-])n3)cc2)cc1 | > 200 µM | > 200 µM | > 200 µM |  |  | 52.1 µM (≈ 18.1 µg/mL) |  |  |  |  | 
CO[C@H]1/C=C/O[C@@]2(C)Oc3c(C)c(O)c4c(O)c(c(/C=N/N5CCN(C)CC5)c(O)c4c3C2=O)NC(=O)/C(C)=C\C=C\[C@H](C)[C@H](O)[C@@H](C)[C@@H](O)[C@@H](C)[C@H](OC(C)=O)[C@@H]1C [RIFAMPIN] | 0.0046 to 0.0061 µM | 0.0049 to 0.014 µM | 0.015 to 0.033 µM (≈ 0.0123 to 0.0272 µg/mL) | 0.00072 to 0.015 µM | 0.0037 to 0.049 µM | 0.022 to 0.18 µM (≈ 0.0181 to 0.148 µg/mL) |  |  |  |  | 
O=C(Cn1ccnc1[N+](=O)[O-])Nc1ccc(Oc2ccc(Cl)cc2)cc1 | 81 µM | > 200 µM | > 200 µM | 17 µM | 24 µM | 35 µM (≈ 13 µg/mL) | 100 µM (≈ 37.3 µg/mL) |  |  |  | Ratio [14]: 6 - 9; IC50 [4]: 30 µM; log(activity) [5]: 2.6
CN[C@@H]1C[C@H]2O[C@@](C)([C@@H]1OC)n1c3ccccc3c3c4c(c5c6ccccc6n2c5c31)C(=O)NC4 [STAUROSPORINE] |  |  |  |  |  |  |  |  |  |  | IC50 [13]: 0.018 µM
COCCc1ccc(OCC(O)CNC(C)C)cc1.COCCc1ccc(OCC(O)CNC(C)C)cc1.O=C(O)/C=C/C(=O)O (racemic) [METOPROLOL FUMARATE] |  |  |  |  |  |  |  | Soluble |  |  | 
Cc1nc([N+](=O)[O-])cn1CCCNC(=O)c1cc2ccccc2s1 | > 200 µM | > 200 µM | > 200 µM |  |  |  |  | Soluble |  |  | 
O=C(CCn1cnc([N+](=O)[O-])n1)Nc1ccc(Oc2ccc(Cl)cc2)cc1 | 15 to 22 µM | 22 to 24 µM | 24 to 26 µM (≈ 9.31 to 10.1 µg/mL) | 25 µM | 27 µM | 30 µM (≈ 11.6 µg/mL) | 20 µM (≈ 7.76 µg/mL) |  | 3.4 µM | 10 µM | Activity [1]: Tde; Activity [3]: Tde; Ratio [14]: 6 - 9; IC50 [10]: 14 µM; IC50 [7]: 17 µM
O=C(Cn1cnc([N+](=O)[O-])n1)Nc1ccc(Cc2ccccc2)cc1 | 30 µM | 38 µM | 45 µM (≈ 15.2 µg/mL) | 39 µM | 59 µM | 94 µM (≈ 31.7 µg/mL) | 20 µM (≈ 6.75 µg/mL) |  | 6.2 µM | 12 µM | IC50 [10]: 47 µM
O=C(Cn1cnc([N+](=O)[O-])n1)Nc1cc(-c2ccc(Cl)cc2)no1 | 96 µM | 140 µM | 200 µM (≈ 69.7 µg/mL) |  |  |  |  |  |  |  | 
O=C(CCn1cnc([N+](=O)[O-])n1)Nc1ccc(Oc2ccc(F)cc2)cc1 | 22 to 25 µM | 28 to 34 µM | 31 to 32 µM (≈ 11.5 to 11.9 µg/mL) | 25 µM | 28 µM | 31 µM (≈ 11.5 µg/mL) | 20 µM (≈ 7.43 µg/mL) |  | 3.8 µM | 16 µM | Activity [1]: Tde; Activity [3]: Tde; Ratio [14]: 6 - 9; IC50 [10]: 21 µM; IC50 [7]: 23 µM
O=C(CCCN1CCC(O)(c2ccc(Cl)cc2)CC1)c1ccc(F)cc1 [HALOPERIDOL] |  |  |  |  |  |  |  | Insoluble |  |  | 
O=C(Cn1cnc([N+](=O)[O-])n1)Nc1ccc(N2CCCCC2)cc1 | 29 µM | 46 µM | 48 µM (≈ 15.9 µg/mL) | 99 µM | 110 µM | 120 µM (≈ 39.6 µg/mL) | 20 µM (≈ 6.61 µg/mL) |  | 11 µM | 25 µM | IC50 [10]: > 50 µM; fraction unbound at 4 h, 5 µM [11]: 0.233; half-life at 1 µM [15]: 2.68 h; half-life at 1 µM [12]: > 3 h; IC50 [13]: > 100 µM; Papp A→B at 2 h, 10 µM [16]: 38.4 ×10⁻⁶ cm/s; Papp B→A at 2 h, 10 µM [17]: 27 ×10⁻⁶ cm/s; efflux ratio at 2 h, 10 µM [18]: 0.7
O=C(Cn1cnc([N+](=O)[O-])n1)N1CCN(Cc2ccc(C(F)(F)F)cc2)CC1 | 25 µM | 28 µM | 27 µM (≈ 10.8 µg/mL) | 62 µM | 100 µM | 170 µM (≈ 67.7 µg/mL) | 20 µM (≈ 7.97 µg/mL) |  | 13 µM | 14 µM | IC50 [10]: > 50 µM; fraction unbound at 4 h, 5 µM [11]: 0.179; half-life at 1 µM [15]: > 3 h; half-life at 1 µM [12]: > 3 h; IC50 [13]: > 100 µM
O=C(CCn1cnc([N+](=O)[O-])n1)Nc1cc(-c2ccc(F)cc2)on1 | 66 µM | > 100 µM | > 200 µM |  |  |  |  |  |  |  | 
Cc1nc([N+](=O)[O-])cn1CCCNC(=O)c1sc2ccccc2c1Cl | 175 µM | > 200 µM | > 200 µM |  |  |  |  | Soluble |  |  | 

— ChEMBL document CHEMBL4177599, “The antitubercular activity of various nitro(triazole/imidazole)-based compounds” (Bioorg Med Chem, 2017)
